Assay results as given in patent publication US20060222657A1, “Polypeptide transduction and fusogenic peptides” (priority 2003, published 2006).
“Also recorded” adds a separate entry of the source. Where no end group is shown, it is not given here. [ ]: non-standard residue; d: D form.

How the values were obtained:
tex.loxP.EG cells [1] = assay: TAT-Cre mediated recombination of lox-stop-lox eGFP reporter, flow cytometry of live cells; assay type: cell-based, murine; settings: for effect on TAT-Cre recombination (free glycosaminglyans): incubated with TAT-Cre 1 hr in serum-free media, eGFP after 16 hr; for effect on TAT-Cre recombination (endocytosis inhibitors): pretreated 30′ in serum-free media, then TAT-Cre for 1 h, replated overnight
tex.loxP.EG T cells = assay: Cell surface binding of TAT-Cre; assay type: cell-based, murine; settings: free glycosaminglyans in increasing concentrations, 1 hr, serum-free media
Experimental: Full-length TAT protein has previously been reported to bind strongly to cell surface heparin sulfate proteoglycans. […] To determine whether cell surface binding was a necessary and prerequisite step for TAT-Cre internalization, cells were incubated with TAT-Cre and increasing concentrations of free glycosaminglyans for 1 hr in serum-free media, then washed and replated the cells in complete media, and measured eGFP expression after 16 hr.

3T3 loxP.lacZ cells = assay: TAT-Cre recombination of lacZ reporter, in situ β-galactosidase staining; assay type: cell-based; settings: 100 μM and 200 μM chloroquine with sub-threshold TAT-Cre, overnight, DMEM +10% serum
Experimental: 3T3 loxP.lacZ cells containing a lacZ reporter expressed after recombination were grown in DMEM (Invitrogen) containing 10% fetal bovine serum. Following recombination cells expressing lacZ were assayed by in situ beta-galactosidase staining (Stratagene).
To determine the effect of endosomal release by chloroquine, 3T3 loxP.lacZ cells were treated with 0. 25 μM TAT-Cre and 0-200 μM chlorocguine (Sigma) in DMEM +10% FBS overnight. LacZ expression was measured by in situ β-galactosidase staining (Stratagene).

3T3 LacZ reporter cells = assay: Cytotoxicity (loss of cells) of chloroquine treatment; assay type: cell-based; settings: effective dose of chloroquine; multiple several cell lines
Experimental: To recombine DNA and induce eGFP expression, TAT-Cre must escape from macropinosomes. […] Therefore to enhance release from macropinosomes, 3T3 LacZ reporter cells were treated with a sub-threshold dose of TAT-Cre in combination with increasing concentrations of chloroquine, an ion-transporting ATPase inhibitor that prevents vesicle acidification leading to endosomal disruption (FIG. 5a).

mammalian cells = assay: TAT-Cre transduction efficiency and cytotoxicity with endosomal release agents (summary statement); assay type: cell-based
cells = settings: cited from earlier work
cell surface = settings: increasing concentrations of polyanions; cited from earlier work
tex.loxP.EG cells [2] = assay: TAT-Cre-488 and FM4-64 internalization by flow cytometry; assay type: cell-based, murine; settings: nystatin 30′ pretreatment, then TAT-Cre-488 and FM4-64 for 1 h
Experimental: Recombination experiments. To measure the rate of TAT-Cre internalization, tex.loxP.EG cells were plated at 5×10^5 cells/well and treated with 0.5 μM TAT-Cre in RPMI +/− 10% FBS. After each time period, cells were trypsinized for 2′, washed and replated into complete media overnight. For all drug treatments [0-50 μg/mL chondroitin sulfate A, B, or C (Sigma), 0-25 μg/mL heparin (Sigma), 0-100 μg/mL nystatin (Fluka), 0-5 mM […] (Sigma), 0-5 mM amiloride (Sigma) and 0-10 μM cytochalasin D (Sigma)], cells were washed and pretreated for 30′ in serum-free media before the addition of TAT-Cre. Cells were maintained for 1 h in the presence of inhibitors (except for cyclodextrin) aftex which they were washed twice and replated overnight in media containing serum. To measure the effect of nystatin on TAT-Cre internalization, tex.loxP.EG cells were pretreated as described with 10, 25 or 50 μg/mL nystatin for 30′ before the addition of 2 μM TAT-Cre-488 and […] FM4-64. After 1 h, the cells were trypsinized and the fluorescence measured by flow cytometry. […] LacZ expression was measured by in situ β-galactosidase staining (Stratagene). For peptide treatments, tex.loxP.EG cells maintained in RPMI +10% FBS were incubated TAT-Cre and either […] HA2-tat or tat peptide for 16-20 h after which eGFP expression was measured by flow cytometry. […]

[3] = system: viral promoter within cells in culture; settings: cited from earlier work

Molecule: chondroitin sulfate B
- effect on TAT-Cre recombination (free glycosaminglyans) (tex.loxP.EG cells [1]): strongly inhibited subsequent recombination
- effect on surface binding of TAT-Cre (tex.loxP.EG T cells): prevented surface binding of TAT-Cre

Molecule: CCN(CC)CCCC(C)Nc1ccnc2cc(Cl)ccc12 (stereo not drawn) [chloroquine]
- effect on TAT-Cre recombination and LacZ expression (3T3 loxP.lacZ cells): significant increase in recombination and LacZ expression; also recorded: increases TAT-Cre recombination
- cytotoxicity (3T3 LacZ reporter cells): extensive cytotoxicity
- cytotoxicity (mammalian cells): extensive cytotoxicity
- effect on transduction efficiency of TAT-Cre (mammalian cells): moderately increased transduction efficiency

Molecule: GRKKRRQRRR (G[dR][dK][dK][dR][dR][dQ][dR][dR][dR]) [TAT D-isomer peptide, control TAT peptide]
- effect of peptide on TAT-Cre recombination (in words) (tex.loxP.EG cells [1]): only minor increases in recombination

Molecule: chondroitin sulfate C
- effect on TAT-Cre recombination (free glycosaminglyans) (tex.loxP.EG cells [1]): strongly inhibited subsequent recombination
- effect on surface binding of TAT-Cre (tex.loxP.EG T cells): prevented surface binding of TAT-Cre

Molecule: FITKALGISYGRKKRR [TAT-(37-53)]
- cell internalization and nuclear localization (cells): not able to transduce into cells

Molecule: LGISYGRKKRRQRRRPPQ [TAT-(43-60)]
- cell internalization and nuclear localization (cells): fully retained the ability for cell internalization and nuclear localization

Molecule: N=C(N)NC(=O)c1nc(Cl)c(N)nc1N [amiloride]
- effect on TAT-Cre recombination (endocytosis inhibitors) (tex.loxP.EG cells [1]): dose-dependent inhibition of TAT-Cre transduction into the cells and lack of recombination; also recorded: dose-dependent decrease in recombination

Molecule: dextran sulphate
- effect on intracellular accumulation of TAT (cell surface): competitively blocked

Molecule: C=C1[C@@H](C)[C@H]2[C@H](Cc3ccccc3)NC(=O)[C@]23[C@H](OC(C)=O)/C=C/[C@@](C)(O)C(=O)[C@@H](C)C/C=C/[C@H]3[C@@H]1O [cytochalasin D]
- effect on TAT-Cre recombination (endocytosis inhibitors) (tex.loxP.EG cells [1]): dose-dependent inhibition of TAT-Cre transduction into the cells and lack of recombination; also recorded: dose-dependent decrease in recombination

Molecule: C[C@@H]1[C@H](O)[C@@H](C)/C=C/C=C/CC/C=C/C=C/C=C/C=C/C(O[C@H]2O[C@H](C)[C@@H](O)[C@H](N)[C@@H]2O)CC2O[C@](O)(CC(O)C(O)CCC(O)CC(O)CC(O)CC(=O)O[C@H]1C)CC(O)C2C(=O)O (stereo partly drawn) [nystatin]
- effect of nystatin pretreatment on HA2-TAT-mediated enhancement of recombination (tex.loxP.EG cells [1]; nystatin 30′ in serum-free media, then TAT-Cre +/− 5 mM HA2-TAT for 1 h): inhibited HA2-TAT-mediated enhancement of recombination; also recorded: blocks the effect of HA2-TAT peptide
- effect on TAT-Cre recombination (endocytosis inhibitors) (tex.loxP.EG cells [1]): dose-dependent inhibition of recombination
- FM4-64 endosomal dye internalization after nystatin treatment (tex.loxP.EG cells [2]): only a minor decrease
- TAT-Cre-488 internalization after nystatin treatment (tex.loxP.EG cells [2]): near complete loss of TAT-Cre-488 internalization

Molecule: heparin
- effect on TAT-Cre recombination (free glycosaminglyans) (tex.loxP.EG cells [1]): strongly inhibited subsequent recombination
- effect on surface binding of TAT-Cre (tex.loxP.EG T cells): prevented surface binding of TAT-Cre
- effect on intracellular accumulation of TAT (cell surface): competitively blocked

Molecule: GRKKRRQ RRRPPQ (GRKKRRQRRRPPQ) [TAT-(48-60)]
- cell internalization and nuclear localization (cells): fully retained the ability for cell internalization and nuclear localization
- transduction efficiency relative to other active peptide sequences (cells): more efficiently transduced than other active peptide sequences

Molecule: OC[C@H]1O[C@@H]2O[C@H]3[C@H](O)[C@@H](O)[C@@H](O[C@H]4[C@H](O)[C@@H](O)[C@@H](O[C@H]5[C@H](O)[C@@H](O)[C@@H](O[C@H]6[C@H](O)[C@@H](O)[C@@H](O[C@H]7[C@H](O)[C@@H](O)[C@@H](O[C@H]8[C@H](O)[C@@H](O)[C@@H](O[C@H]1[C@H](O)[C@H]2O)O[C@@H]8CO)O[C@@H]7CO)O[C@@H]6CO)O[C@@H]5CO)O[C@@H]4CO)O[C@@H]3CO [β-cyclodextrin]
- effect on TAT-Cre recombination (endocytosis inhibitors) (tex.loxP.EG cells [1]): dose-dependent inhibition of recombination

B1: Cre: control Cre protein without TAT, expressed and purified under identical conditions (protein, UniProt P06956 1-343, looked up)
Recombinase cre: MSNLLTVHQNLPALPVDATSDEVRKNLMDMFRDRQAFSEHTWKMLLSVCRSWAAWCKLNNRKWFPAEPEDVRDYLLYLQARGLAVKTIQQHLGQLNMLHRRSGLPRPSDSNAVSLVMRRIRKENVDAGERAKQALAFERTDFDQVRSLMENSDRCQDIRNLAFLGIAYNTLLRIAEIARIRVKDISRTDGGRMLIHIGRTKTLVSTAGVEKALSLGVTKLVERWISVSGVADDPNNYLFCRVRKNGVAAPSATSQLSTRALEGIFEATHRLIYGAKDDSGQRYLAWSGHSARVGAARDMARAGVSIPEIMQAGGWTNVNIVMNYIRNLDSETGAMVRLLEDGD
- site specific recombination and eGFP expression after treatment (tex.loxP.EG cells [1]; tex.loxP.EG cells, eGFP measured 16-20 h later by flow cytometry): failed to undergo recombination and express eGFP

B2: TAT protein: HIV-1 transcriptional activator TAT protein, full length (protein)
chain: MEPVDPRLEPWKHPGSQPKTACTNCYCKKCCFHCQVCFITKALGISYGRKKRRQRRRPPQGSQTHQVSLSKQPTSQSRGDPTGPKE
modifications: transducing protein
- concentration sufficient to induce reporter activity ([3]; added to the culture media, no external perturbations): 1 nM
- treatment time of maximal increase in biological activity ([3]; all cell types used): 5 minutes
